How the values were obtained:
[1] = target: G-protein coupled receptor 183 (Homo sapiens, UniProt P32249)
Description: Antagonist activity at GPR183 (unknown origin) transfected in HEK293 cells incubated for 30 mins by Glosensor cAMP assay

[2] = Oral bioavailability in C57BL/6 mouse at 3 mg/kg measured upto 24 hrs by LC-MS/MS analysis; format: ADME, organism-based; conditions: in vivo
[3] = Apparent volume of distribution in C57BL/6 mouse at 1 mg/kg, iv measured upto 24 hrs by LC-MS/MS analysis; format: ADME, organism-based; conditions: in vivo, read-out: Vz
[4] = Cmax in C57BL/6 mouse at 1 mg/kg, iv measured upto 24 hrs by LC-MS/MS analysis; format: ADME, organism-based; conditions: in vivo
[5] = AUC infinity in C57BL/6 mouse at 1 mg/kg, iv measured upto 24 hrs by LC-MS/MS analysis; format: ADME, organism-based; conditions: in vivo
[6] = AUC infinity in C57BL/6 mouse at 3 mg/kg, po measured upto 24 hrs by LC-MS/MS analysis; format: ADME, organism-based; conditions: in vivo
[7] = Cmax in C57BL/6 mouse at 3 mg/kg, po measured upto 24 hrs by LC-MS/MS analysis; format: ADME, organism-based; conditions: in vivo
U-937 = test: Antimigratory activity against human U-937 cells assessed as inhibition of 7alpha,25-dihydroxycholesterol induced cell migration by CCK-8 method; format: functional, cell-based
[8] = Half life in C57BL/6 mouse at 1 mg/kg, iv measured upto 24 hrs by LC-MS/MS analysis; format: ADME, organism-based; conditions: in vivo
[9] = Metabolic stability in mouse liver microsomes assessed as intrinsic clearance; format: ADME, Microsome; conditions: read-out: CLH
[10] = Half life in C57BL/6 mouse at 3 mg/kg, po measured upto 24 hrs by LC-MS/MS analysis; format: ADME, organism-based; conditions: in vivo
[11] = Clearance in C57BL/6 mouse at 1 mg/kg, iv measured upto 24 hrs by LC-MS/MS analysis; format: ADME, organism-based; conditions: in vivo

Chain of G-protein coupled receptor 183 (P32249 whole entry): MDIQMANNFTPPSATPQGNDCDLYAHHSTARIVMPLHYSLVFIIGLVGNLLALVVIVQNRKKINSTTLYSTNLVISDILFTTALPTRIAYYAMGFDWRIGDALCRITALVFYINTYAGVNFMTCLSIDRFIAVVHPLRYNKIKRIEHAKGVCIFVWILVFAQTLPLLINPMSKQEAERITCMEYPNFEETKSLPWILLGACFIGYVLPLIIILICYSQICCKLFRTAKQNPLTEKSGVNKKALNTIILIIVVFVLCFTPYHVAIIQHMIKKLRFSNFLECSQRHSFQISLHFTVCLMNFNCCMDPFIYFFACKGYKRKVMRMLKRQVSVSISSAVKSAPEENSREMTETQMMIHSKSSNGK

Row | Compound | IC50 [1] [µM] | further results
1 | O=C(/C=C/c1ccc(Br)cc1)N1CCN(C(=O)c2ccc3nc(C(F)(F)F)sc3c2)CC1 | 0.00254 | –
2 | COc1ccc(C(=O)N2CC3CCC(C2)N3C(=O)/C=C/c2ccc(Br)cc2)cc1 | > 10 | –
3 | Nc1nc2ccc(C(=O)N3CCN(C(=O)/C=C/c4ccc(F)cc4)CC3)cc2s1 | 0.866 | –
4 | Nc1nc2ccc(C(=O)N3CCN(C(=O)/C=C/c4ccc(F)c(F)c4)CC3)cc2s1 | 1.25 | –
5 | COc1ccc(C(=O)N2CCN(C(=O)/C=C/c3ccc(Br)cc3)CC2)cc1 | – | bioavailability [2]: 71.4%; Vd [3]: 1.75 L/kg; Cmax [4]: 612 ng/mL; AUC(0-inf) [5]: 966 ng·h/mL; AUC(0-inf) [6]: 2070 ng·h/mL; Cmax [7]: 640 ng/mL; IC50 (U-937): 0.0045 µM; half-life [8]: 1.17 h; microsomal CLint [9]: 46 µL/min/mg; half-life [10]: 2.19 h; clearance [11]: 17.3 mL/min/kg
6 | COc1ccc(C(=O)NCC2CCN(C(=O)/C=C/c3ccc(Br)cc3)CC2)cc1 | > 10 | –
7 | Cc1nc2ccc(C(=O)N3CCN(C(=O)/C=C/c4ccc(Br)cc4)CC3)cc2[nH]1 | > 10 | –
8 | O=C(/C=C/c1ccc(Br)cc1)N1CCN(C(=O)c2ccc3ncsc3c2)CC1 | 0.00305 | –

Further lines, with some results ahead:

Row | IC50 [1] [µM] | Compound | further results
9 | 0.0197 | COc1ccc(NC(=O)CC2CCN(C(=O)/C=C/c3ccc(Br)cc3)CC2)cc1 | –
10 | 0.0769 | O=C(Nc1nc2ccc(C(=O)N3CCN(C(=O)/C=C/c4ccc(Br)cc4)CC3)cc2s1)C1CC1 | –
11 | 0.26 | N#Cc1ccc(/C=C/C(=O)N2CCN(C(=O)c3ccc4nc(N)sc4c3)CC2)cc1 | –
12 | 0.0189 | CC(=O)Nc1nc2ccc(C(=O)N3CCN(C(=O)/C=C/c4ccc(Br)cc4)CC3)cc2s1 | –
13 | 0.0662 | COc1ccc(C(=O)NCC2(F)CCN(C(=O)/C=C/c3ccc(Br)cc3)CC2)cc1 | –
14 | 0.0079 | Cn1ccc2ccc(C(=O)N3CCN(C(=O)/C=C/c4ccc(Br)cc4)CC3)cc21 | –
15 | 0.442 | Cn1cnc2cc(C(=O)N3CCN(C(=O)/C=C/c4ccc(Br)cc4)CC3)ccc21 | –
16 | 0.0057 | COc1ccc(NC(=O)C(F)(F)C2CCN(C(=O)/C=C/c3ccc(Br)cc3)CC2)cc1 | –
17 | 0.386 | Nc1nc2ccc(C(=O)N3CCN(C(=O)/C=C/c4ccc5c(c4)CCO5)CC3)cc2s1 | –
18 | 0.00623 | CNc1nc2ccc(C(=O)N3CCN(C(=O)/C=C/c4ccc(Br)cc4)CC3)cc2s1 | –

From ChEMBL document CHEMBL5528074 (J Med Chem, 2024)
